Assay results as given in ChEMBL document CHEMBL4507300 (2021).

Legend:
[1] = molecular target: Serine/threonine-protein kinase Nek9 (Homo sapiens) (UniProt Q8TD19); conditions: Compound concentration 1000.0 nM
[2] = molecular target: 5'-AMP-activated protein kinase catalytic subunit alpha-2 (Homo sapiens) (UniProt P54646); conditions: Compound concentration 1000.0 nM
[3] = molecular target: Ankyrin repeat and protein kinase domain-containing protein 1 (Homo sapiens) (UniProt Q8NFD2); conditions: Compound concentration 1000.0 nM
[4] = molecular target: Tyrosine-protein kinase FRK (Homo sapiens) (UniProt P42685); conditions: Compound concentration 1000.0 nM
[5] = molecular target: Death-associated protein kinase 2 (Homo sapiens) (UniProt Q9UIK4); conditions: Compound concentration 1000.0 nM
Chain of Death-associated protein kinase 2 (Homo sapiens) (Q9UIK4 whole entry, looked up, the tested form may be a part): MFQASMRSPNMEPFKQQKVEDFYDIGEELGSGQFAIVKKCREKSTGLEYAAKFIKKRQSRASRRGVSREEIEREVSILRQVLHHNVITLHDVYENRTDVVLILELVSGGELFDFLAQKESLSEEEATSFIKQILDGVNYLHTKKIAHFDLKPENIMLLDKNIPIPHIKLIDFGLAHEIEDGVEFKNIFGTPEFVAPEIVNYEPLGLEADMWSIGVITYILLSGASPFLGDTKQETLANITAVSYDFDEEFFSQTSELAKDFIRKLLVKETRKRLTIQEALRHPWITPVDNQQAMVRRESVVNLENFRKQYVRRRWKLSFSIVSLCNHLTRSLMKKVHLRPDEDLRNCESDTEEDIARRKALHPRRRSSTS

[6] = molecular target: LIM domain kinase 2 (Homo sapiens) (UniProt P53671); conditions: Compound concentration 1000.0 nM
[7] = test system: Receptor-type tyrosine-protein kinase FLT3 (Homo sapiens), P36888 [D835H]; conditions: Compound concentration 1000.0 nM
[8] = molecular target: Serine/threonine-protein kinase 38 (Homo sapiens) (UniProt Q15208); conditions: Compound concentration 1000.0 nM
Chain of Serine/threonine-protein kinase 38 (Homo sapiens) (Q15208 2-465 limits assumed): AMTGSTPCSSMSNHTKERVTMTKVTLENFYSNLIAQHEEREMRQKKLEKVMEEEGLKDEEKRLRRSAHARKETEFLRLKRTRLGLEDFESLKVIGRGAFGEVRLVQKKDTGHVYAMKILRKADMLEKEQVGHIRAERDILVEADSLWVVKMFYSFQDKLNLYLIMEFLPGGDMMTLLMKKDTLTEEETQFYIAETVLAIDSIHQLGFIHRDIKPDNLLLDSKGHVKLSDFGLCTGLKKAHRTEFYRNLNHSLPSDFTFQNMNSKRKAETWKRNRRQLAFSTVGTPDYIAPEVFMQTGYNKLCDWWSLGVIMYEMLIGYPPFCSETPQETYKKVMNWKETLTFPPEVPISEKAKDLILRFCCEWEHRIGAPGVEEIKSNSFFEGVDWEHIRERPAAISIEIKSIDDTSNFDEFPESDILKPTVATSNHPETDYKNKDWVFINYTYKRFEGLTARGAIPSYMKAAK

[9] = molecular target: Mitogen-activated protein kinase kinase kinase 5 (Homo sapiens) (UniProt Q99683); conditions: Compound concentration 1000.0 nM
[10] = molecular target: Mitogen-activated protein kinase kinase kinase 20 (Homo sapiens) (UniProt Q9NYL2); conditions: Compound concentration 1000.0 nM
[11] = molecular target: Serine/threonine-protein kinase Nek2 (Homo sapiens) (UniProt P51955); conditions: Compound concentration 1000.0 nM
Chain of Serine/threonine-protein kinase Nek2 (Homo sapiens) (P51955 whole entry): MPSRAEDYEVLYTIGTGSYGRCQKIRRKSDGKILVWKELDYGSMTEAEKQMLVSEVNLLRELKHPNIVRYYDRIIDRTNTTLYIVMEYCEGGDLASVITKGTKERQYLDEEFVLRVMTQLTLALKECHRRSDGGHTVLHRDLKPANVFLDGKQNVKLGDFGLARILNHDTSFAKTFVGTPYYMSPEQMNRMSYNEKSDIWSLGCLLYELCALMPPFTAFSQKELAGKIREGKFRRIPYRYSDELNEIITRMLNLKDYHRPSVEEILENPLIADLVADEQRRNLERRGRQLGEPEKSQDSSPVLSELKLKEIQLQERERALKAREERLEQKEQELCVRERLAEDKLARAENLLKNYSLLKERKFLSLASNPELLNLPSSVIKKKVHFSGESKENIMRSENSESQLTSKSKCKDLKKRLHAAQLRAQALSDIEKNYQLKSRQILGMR

[12] = molecular target: Serine/threonine-protein kinase mTOR (Homo sapiens) (UniProt P42345); conditions: Compound concentration 1000.0 nM
[13] = molecular target: Serine/threonine-protein kinase Sgk2 (Homo sapiens) (UniProt Q9HBY8); conditions: Compound concentration 1000.0 nM
[14] = molecular target: Microtubule-associated serine/threonine-protein kinase 1 (Homo sapiens) (UniProt Q9Y2H9); conditions: Compound concentration 1000.0 nM
[15] = test system: Mast/stem cell growth factor receptor Kit (Homo sapiens), P10721 [V559D]; conditions: Compound concentration 1000.0 nM
[16] = test system: Epidermal growth factor receptor (Homo sapiens), P00533 [UNDEFINED MUTATION]; conditions: Compound concentration 1000.0 nM
[17] = molecular target: Non-receptor tyrosine-protein kinase TYK2 (Homo sapiens) (UniProt P29597); conditions: Compound concentration 1000.0 nM
[18] = test system: ALK tyrosine kinase receptor (Homo sapiens), Q9UM73 [C1156Y]; conditions: Compound concentration 1000.0 nM
[19] = test system: Fibroblast growth factor receptor 3 (Homo sapiens), P22607 [G697C]; conditions: Compound concentration 1000.0 nM
[20] = molecular target: Myosin light chain kinase (Homo sapiens) (UniProt Q32MK0); conditions: Compound concentration 1000.0 nM
[21] = molecular target: Interleukin-1 receptor-associated kinase 3 (Homo sapiens) (UniProt Q9Y616); conditions: Compound concentration 1000.0 nM
Chain of Interleukin-1 receptor-associated kinase 3 (Homo sapiens) (Q9Y616 whole entry): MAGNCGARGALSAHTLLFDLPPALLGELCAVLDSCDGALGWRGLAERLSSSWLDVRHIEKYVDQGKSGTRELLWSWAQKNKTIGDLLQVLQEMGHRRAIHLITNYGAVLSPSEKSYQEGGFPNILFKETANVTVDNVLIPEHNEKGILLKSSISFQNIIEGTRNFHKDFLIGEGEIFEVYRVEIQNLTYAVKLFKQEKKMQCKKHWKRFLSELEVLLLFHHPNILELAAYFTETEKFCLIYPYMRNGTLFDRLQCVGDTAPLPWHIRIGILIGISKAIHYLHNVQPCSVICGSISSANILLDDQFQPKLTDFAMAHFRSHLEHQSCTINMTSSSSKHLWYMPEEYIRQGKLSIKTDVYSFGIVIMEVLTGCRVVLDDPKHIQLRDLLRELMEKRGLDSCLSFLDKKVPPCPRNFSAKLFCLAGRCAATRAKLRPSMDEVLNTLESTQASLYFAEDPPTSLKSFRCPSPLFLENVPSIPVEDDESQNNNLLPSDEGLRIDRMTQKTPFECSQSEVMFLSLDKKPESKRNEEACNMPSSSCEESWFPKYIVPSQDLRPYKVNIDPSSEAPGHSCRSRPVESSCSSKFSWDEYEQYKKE

[22] = molecular target: D(1A) dopamine receptor (Homo sapiens) (UniProt P21728); conditions: Compound concentration 10.0 uM
[23] = molecular target: Tyrosine-protein kinase Fyn (Homo sapiens) (UniProt P06241); conditions: Compound concentration 1000.0 nM
Chain of Tyrosine-protein kinase Fyn (Homo sapiens) (P06241 2-537 limits assumed): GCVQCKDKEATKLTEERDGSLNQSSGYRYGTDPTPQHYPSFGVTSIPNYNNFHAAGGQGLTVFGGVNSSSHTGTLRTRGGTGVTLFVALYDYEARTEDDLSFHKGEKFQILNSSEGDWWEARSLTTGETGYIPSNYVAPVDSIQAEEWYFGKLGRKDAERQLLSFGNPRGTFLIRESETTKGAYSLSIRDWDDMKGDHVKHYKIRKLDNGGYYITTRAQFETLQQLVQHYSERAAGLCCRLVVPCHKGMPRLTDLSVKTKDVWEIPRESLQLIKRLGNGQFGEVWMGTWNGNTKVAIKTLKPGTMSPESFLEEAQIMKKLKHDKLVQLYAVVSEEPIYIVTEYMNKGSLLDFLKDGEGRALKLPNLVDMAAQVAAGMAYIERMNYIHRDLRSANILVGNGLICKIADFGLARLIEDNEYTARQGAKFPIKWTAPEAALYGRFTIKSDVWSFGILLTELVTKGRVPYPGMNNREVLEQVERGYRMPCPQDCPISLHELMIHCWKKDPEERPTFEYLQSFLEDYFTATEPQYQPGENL

[24] = molecular target: Serine/threonine-protein kinase BRSK2 (Homo sapiens) (UniProt Q8IWQ3); conditions: Compound concentration 1000.0 nM
[25] = test system: Proto-oncogene tyrosine-protein kinase receptor Ret (Homo sapiens), P07949 [M918T]; conditions: Compound concentration 1000.0 nM
[26] = molecular target: Receptor tyrosine-protein kinase erbB-4 (Homo sapiens) (UniProt Q15303); conditions: Compound concentration 1000.0 nM
[27] = molecular target: Serine/threonine-protein kinase MRCK beta (Homo sapiens) (UniProt Q9Y5S2); conditions: Compound concentration 1000.0 nM
[28] = test system: Phosphatidylinositol 4,5-bisphosphate 3-kinase catalytic subunit alpha isoform (Homo sapiens), P42336 [H1047Y]; conditions: Compound concentration 1000.0 nM
[29] = molecular target: TRAF2 and NCK-interacting protein kinase (Homo sapiens) (UniProt Q9UKE5); conditions: Compound concentration 1000.0 nM
[30] = molecular target: Serine/threonine-protein kinase SIK3 (Homo sapiens) (UniProt Q9Y2K2); conditions: Compound concentration 1000.0 nM
Chain of Serine/threonine-protein kinase SIK3 (Homo sapiens) (Q9Y2K2 whole entry, looked up): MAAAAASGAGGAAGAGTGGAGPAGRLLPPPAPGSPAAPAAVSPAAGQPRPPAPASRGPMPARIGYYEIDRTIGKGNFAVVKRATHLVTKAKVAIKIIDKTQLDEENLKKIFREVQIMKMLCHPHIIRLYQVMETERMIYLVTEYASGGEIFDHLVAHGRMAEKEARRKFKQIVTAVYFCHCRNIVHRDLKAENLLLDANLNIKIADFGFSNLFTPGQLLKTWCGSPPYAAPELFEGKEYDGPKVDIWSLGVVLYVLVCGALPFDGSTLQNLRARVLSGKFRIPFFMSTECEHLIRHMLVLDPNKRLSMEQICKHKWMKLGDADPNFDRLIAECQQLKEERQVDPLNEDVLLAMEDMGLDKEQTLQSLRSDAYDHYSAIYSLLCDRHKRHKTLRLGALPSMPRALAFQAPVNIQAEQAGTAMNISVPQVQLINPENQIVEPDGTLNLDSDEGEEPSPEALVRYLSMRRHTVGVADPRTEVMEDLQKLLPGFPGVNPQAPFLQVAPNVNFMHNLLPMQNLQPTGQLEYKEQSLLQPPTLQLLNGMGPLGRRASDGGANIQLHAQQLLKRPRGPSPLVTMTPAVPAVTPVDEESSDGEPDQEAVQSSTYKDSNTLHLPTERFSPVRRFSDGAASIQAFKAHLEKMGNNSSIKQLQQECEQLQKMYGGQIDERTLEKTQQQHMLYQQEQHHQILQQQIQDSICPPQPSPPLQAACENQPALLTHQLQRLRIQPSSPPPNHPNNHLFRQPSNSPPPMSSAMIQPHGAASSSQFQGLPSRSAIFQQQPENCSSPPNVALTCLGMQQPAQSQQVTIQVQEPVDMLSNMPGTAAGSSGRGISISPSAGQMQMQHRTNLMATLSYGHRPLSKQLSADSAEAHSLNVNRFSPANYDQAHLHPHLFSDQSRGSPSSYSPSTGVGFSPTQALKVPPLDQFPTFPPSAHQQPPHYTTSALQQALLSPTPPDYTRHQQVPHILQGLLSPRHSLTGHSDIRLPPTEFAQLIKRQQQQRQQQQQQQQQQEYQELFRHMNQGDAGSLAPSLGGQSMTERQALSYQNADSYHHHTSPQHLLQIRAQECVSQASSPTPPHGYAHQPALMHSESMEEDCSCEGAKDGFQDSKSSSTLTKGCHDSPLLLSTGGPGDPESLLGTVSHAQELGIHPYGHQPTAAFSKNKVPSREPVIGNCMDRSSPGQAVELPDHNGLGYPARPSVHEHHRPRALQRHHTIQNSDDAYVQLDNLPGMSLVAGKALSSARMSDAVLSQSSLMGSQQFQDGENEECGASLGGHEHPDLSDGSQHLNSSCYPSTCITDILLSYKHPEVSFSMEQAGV

[31] = molecular target: Eukaryotic translation initiation factor 2-alpha kinase 1 (Homo sapiens) (UniProt Q9BQI3); conditions: Compound concentration 1000.0 nM
[32] = molecular target: Serine/threonine-protein kinase 24 (Homo sapiens) (UniProt Q9Y6E0); conditions: Compound concentration 1000.0 nM
[33] = molecular target: Phosphatidylinositol 4-phosphate 5-kinase type-1 gamma (Homo sapiens) (UniProt O60331); conditions: Compound concentration 1000.0 nM
Chain of Phosphatidylinositol 4-phosphate 5-kinase type-1 gamma (Homo sapiens) (O60331 whole entry): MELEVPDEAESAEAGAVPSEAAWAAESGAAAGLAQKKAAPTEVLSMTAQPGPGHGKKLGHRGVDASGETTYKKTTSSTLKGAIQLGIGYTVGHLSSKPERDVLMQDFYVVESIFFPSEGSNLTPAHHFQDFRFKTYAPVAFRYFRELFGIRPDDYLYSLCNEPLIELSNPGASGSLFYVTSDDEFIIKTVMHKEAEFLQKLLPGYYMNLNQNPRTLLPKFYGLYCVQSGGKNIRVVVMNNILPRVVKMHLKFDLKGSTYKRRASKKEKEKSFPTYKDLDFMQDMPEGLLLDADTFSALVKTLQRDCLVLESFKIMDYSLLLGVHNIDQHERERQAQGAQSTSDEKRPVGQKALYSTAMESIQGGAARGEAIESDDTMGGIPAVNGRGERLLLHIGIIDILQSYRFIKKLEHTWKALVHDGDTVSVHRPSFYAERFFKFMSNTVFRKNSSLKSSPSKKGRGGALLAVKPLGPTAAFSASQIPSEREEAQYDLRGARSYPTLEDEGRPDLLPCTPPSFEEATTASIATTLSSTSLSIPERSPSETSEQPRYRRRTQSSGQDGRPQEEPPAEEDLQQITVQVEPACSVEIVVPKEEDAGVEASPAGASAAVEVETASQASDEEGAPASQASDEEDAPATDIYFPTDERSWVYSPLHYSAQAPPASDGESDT

[34] = molecular target: Dual specificity mitogen-activated protein kinase kinase 3 (Homo sapiens) (UniProt P46734); conditions: Compound concentration 1000.0 nM
[35] = molecular target: Protein kinase C epsilon type (Homo sapiens) (UniProt Q02156); conditions: Compound concentration 1000.0 nM
[36] = molecular target: GABA-A receptor; anion channel (Rattus norvegicus) (UniProt O09028+P15431+P18506+P18508+P19969+P20236+P23574+P23576+P28471+P28473+P30191+P62813+P63079+P63138+Q91ZM7+Q9ES14); conditions: Compound concentration 10.0 uM
[37] = molecular target: Serine/threonine-protein kinase ICK (Homo sapiens) (UniProt Q9UPZ9); conditions: Compound concentration 1000.0 nM
[38] = molecular target: Calcium/calmodulin-dependent protein kinase type 1D (Homo sapiens) (UniProt Q8IU85); conditions: Compound concentration 1000.0 nM
[39] = molecular target: D(3) dopamine receptor (Homo sapiens) (UniProt P35462); conditions: Compound concentration 10.0 uM
[40] = molecular target: Serine/threonine-protein kinase 26 (Homo sapiens) (UniProt Q9P289); conditions: Compound concentration 1000.0 nM
Chain of Serine/threonine-protein kinase 26 (Homo sapiens) (Q9P289 2-416 limits assumed): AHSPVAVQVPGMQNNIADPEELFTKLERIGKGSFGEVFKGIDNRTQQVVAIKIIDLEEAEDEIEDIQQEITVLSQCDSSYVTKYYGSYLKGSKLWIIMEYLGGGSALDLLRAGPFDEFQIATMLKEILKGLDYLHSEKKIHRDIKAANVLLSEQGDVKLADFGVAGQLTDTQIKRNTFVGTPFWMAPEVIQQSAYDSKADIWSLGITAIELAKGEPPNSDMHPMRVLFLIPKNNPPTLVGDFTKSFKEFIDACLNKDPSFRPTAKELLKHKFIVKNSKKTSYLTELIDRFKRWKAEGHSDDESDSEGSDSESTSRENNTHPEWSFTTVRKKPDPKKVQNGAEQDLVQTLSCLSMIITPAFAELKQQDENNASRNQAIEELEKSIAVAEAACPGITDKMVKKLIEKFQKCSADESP

[41] = molecular target: Serine/threonine-protein kinase BRSK1 (Homo sapiens) (UniProt Q8TDC3); conditions: Compound concentration 1000.0 nM
[42] = molecular target: SNF-related serine/threonine-protein kinase (Homo sapiens) (UniProt Q9NRH2); conditions: Compound concentration 1000.0 nM
[43] = molecular target: Phosphatidylinositol 5-phosphate 4-kinase type-2 beta (Homo sapiens) (UniProt P78356); conditions: Compound concentration 1000.0 nM

COc1cccc(CNC(=O)c2nc3scc(COCc4ccc(C(=O)O)cc4)c3c(=O)[nH]2)c1 [T-26c]
inactive: residual activity [1] 98.2% | residual activity [2] 70.5% | residual activity [3] 70.9% | residual activity [4] 83.7% | residual activity [5] 83.1% | residual activity [6] 96.2% | residual activity [7] 92.9% | residual activity [8] 72% | residual activity [9] 97.8% | residual activity [10] 85.5% | residual activity [11] 100% | residual activity [12] 100% | residual activity [13] 84.9% | residual activity [14] 84.4% | residual activity [15] 99.1% | residual activity [16] 98.7% | residual activity [17] 79.8% | residual activity [18] 100% | residual activity [19] 80.2% | residual activity [20] 72.8% | residual activity [21] 97.5% | inhibition [22] -6.24% | residual activity [23] 81.1% | residual activity [24] 77.3% | residual activity [25] 89.5% | residual activity [26] 86.1% | residual activity [27] 99.5% | residual activity [28] 100% | residual activity [29] 100% | residual activity [30] 63.5% | residual activity [31] 88% | residual activity [32] 100% | residual activity [33] 63.7% | residual activity [34] 92.9% | residual activity [35] 62% | inhibition [36] 19% | residual activity [37] 66.1% | residual activity [38] 100% | inhibition [39] 10.5% | residual activity [40] 72.2% | residual activity [41] 100% | residual activity [42] 89.2% | residual activity [43] 100%
